Reference: patent US20260217707A1, “GLP-1R AGONISTS AND USES THEREOF” (Fochon Biosciences, Ltd., priority 2023, published 2026)

Molecular target: GLP1R receptor (Homo sapiens, UniProt P43220)
Experiment: cAMP assay: intracellular cAMP detected by TR-FRET
Format: cell-based
Conditions: cells incubated with compound at 37° C. for 30 min, maximum concentration 12 μM
Method: Intracellular cAMP concentration was detected by TR-FRET method to evaluate the activity of drug-induced GLP1R receptor. The cells were prepared in an experimental buffer solution (HBSS, 20 mM HEPES (pH 7.5), 0.1% BSA, 500 μM IBMX) and inoculated into 384 cell culture plates with a inoculated density of 2000 cells and a inoculated volume of 15 μL per well. The compound was diluted by 3 times gradient with DMSO, 10 concentration gradients, and the 10 concentration gradients were diluted by 100 times in Buffer. The maximum concentration point of compound to be tested was 12 μM. The inoculated 384 cell plates were added with 5 μL prepared working solution and incubated at 37° C. for 30 min. Eu-cAMP tracer was diluted 50 times and Ulight-anti-cAMP 150 times by detection buffer (cAMP Kit, Perkin Elmer, cat #TRF0263). At first, 10 μL Eu-cAMP tracer was added to each experimental well, and then 10 μL Uligh-anti-cAMP was added to each experimental well. Centrifuged the assay plate at 200 g, RT, for 30 s, incubated it at 25° C. for 1 h. Collected the data by Envision 2105 microplate reader with a HTRF module. Excitation: 340 nm; emission: 665 nm and 615 nm.
The activation rate of each concentration of the tested compound to the positive drug was calculated by the formula % Activity=100 (SignalcmpdSignalAve_PC)/(SignalAve_VCSignalAve_PC)×100, EC50 values and nonlinear regression curve fits were obtained using GraphPad Prism software.

Sequence of GLP1R receptor (P43220 24-463): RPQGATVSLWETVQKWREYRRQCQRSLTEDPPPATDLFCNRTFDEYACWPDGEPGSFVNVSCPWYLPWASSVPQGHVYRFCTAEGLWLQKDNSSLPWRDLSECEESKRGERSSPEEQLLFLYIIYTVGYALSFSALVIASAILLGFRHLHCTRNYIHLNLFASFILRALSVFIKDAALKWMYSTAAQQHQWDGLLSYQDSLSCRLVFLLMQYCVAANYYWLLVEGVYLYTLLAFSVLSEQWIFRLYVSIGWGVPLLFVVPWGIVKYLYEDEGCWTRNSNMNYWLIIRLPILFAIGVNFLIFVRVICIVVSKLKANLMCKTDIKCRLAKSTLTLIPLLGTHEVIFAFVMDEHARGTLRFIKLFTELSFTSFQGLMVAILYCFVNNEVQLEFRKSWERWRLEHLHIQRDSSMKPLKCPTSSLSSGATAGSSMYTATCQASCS

Compared with `Cc1cc(-n2nc3c(c2-n2ccn(-c4ccc5c(cnn5C)c4F)c2=O)[C@H](C)N(C(=O)c2sc4cc(C5CCOC(C)(C)C5)ccc4c2C2(c4noc(=O)[nH]4)C[C@@H]2C)CC3)cc(C)c1F` (some centres unmarked) [Example 3], `Cc1cc(-n2nc3c(c2-n2ccn(-c4ccc5c(cnn5C)c4F)c2=O)[C@H](C)N(C(=O)c2sc4cc(C5CCOC(C)(C)C5)cnc4c2C2(c4noc(=O)[nH]4)C[C@@H]2C)CC3)cc(C)c1F` (stereo partly drawn) [Example 30, 3-((2S)-1-(6-(2,2-dimethyl-tetrahydro-2H-pyran-4-yl)-2-((S)-3-(3-(4-fluoro-1-methyl-1H-indazol-5-yl)-2-oxo-2,3-dihydro-1H-imidazol-1-yl)-2-(4-fluoro-3,5-dimethylphenyl)-4-methyl-4,5,6,7-tetrahydro-2H-pyrazolo[4,3-c]pyridine-5-carbonyl)thieno[3,2-b]pyridin-3-yl)-2-methyl-cyclopropyl)-1,2,4-oxadiazol-5(4H)-one] is 9.2-fold lower in EC50: 0.406 nM for the first, 0.044 nM for the second. The second is the more potent here.

`Cc1cc(-n2nc3c(c2N2C(=O)N(c4ccc5c(cnn5C)c4F)C4CC42)[C@H](C)N(C(=O)c2cc4cc([C@H]5CCOC(C)(C)C5)ccc4n2[C@@]2(c4noc(=O)[nH]4)C[C@@H]2C)CC3)cc(C)c1F` (stereo partly drawn) [Example 6, 3-((1S,2S)-1-(5-((S)-2,2-dimethyltetrahydro-2H-pyran-4-yl)-2-((4S)-3-(4-(4-fluoro-1-methyl-1H-indazol-5-yl)-3-oxo-2,4-diazabicyclo[3.1.0]hexan-2-yl)-2-(4-fluoro-3,5-dimethylphenyl)-4-methyl-4,5,6,7-tetrahydro-2H-pyrazolo[4,3-c]pyridine-5-carbonyl)-1H-indol-1-yl)-2-methylcyclopropyl)-1,2,4-oxadiazol-5(4H)-one] and `Cc1cc(-n2nc3c(c2-n2ccn(-c4ccc5c(cnn5C)c4F)c2=O)[C@H](C)N(C(=O)c2sc4nc(C5CCOC(C)(C)C5)ccc4c2C2(c4noc(=O)[nH]4)C[C@@H]2C)CC3)cc(C)c1F` (stereo partly drawn) [Example 29, 3-((2S)-1-(6-(2,2-dimethyl-tetrahydro-2H-pyran-4-yl)-2-((S)-3-(3-(4-fluoro-1-methyl-1H-indazol-5-yl)-2-oxo-2,3-dihydro-1H-imidazol-1-yl)-2-(4-fluoro-3,5-dimethyl-phenyl)-4-methyl-4,5,6,7-tetrahydro-2H-pyrazolo[4,3-c]pyridine-5-carbonyl)thieno [2,3-b]pyridin-3-yl)-2-methylcyclopropyl)-1,2,4-oxadiazol-5(4H)-one] are within 1.5-fold of each other in EC50: 0.087 nM for the first, 0.093 nM for the second.

For `Cc1cc(-n2nc3c(c2-n2ccn(-c4ccc5c(cnn5C)c4F)c2=O)[C@H](C)N(C(=O)c2oc4cc(C5CCOC(C)(C)C5)ncc4c2C2(c4noc(=O)[nH]4)C[C@@H]2C)CC3)cc(C)c1F` (stereo partly drawn) [Example 31, 3-((2S)-1-(6-(2,2-dimethyl-tetrahydro-2H-pyran-4-yl)-2-((S)-3-(3-(4-fluoro-1-methyl-1H-indazol-5-yl)-2-oxo-2,3-dihydro-1H-imidazol-1-yl)-2-(4-fluoro-3,5-dimethylphenyl)-4-methyl-4,5,6,7-tetrahydro-2H-pyrazolo[4,3-c]pyridine-5-carbonyl)furo[3,2-c]pyridin-3-yl)-2-methyl-cyclopropyl)-1,2,4-oxadiazol-5(4H)-one], the EC50 was 0.182 nM.
